{"source": "patent US9844585B2", "about": "“Convection enhanced delivery apparatus, method, and application” (YALE UNIVERSITY, priority 2007, dated 2017)", "key": {"hyaluronan (HA)": {"test_system": "hyaluronan (HA)", "experiment": "Histochemical assessment of hyaluronan degradation (HABP staining)", "assay_type": "in vivo, rat", "description": "Degradation of HA was determined by staining with hyaluronic acid binding protein (HABP) following 1 μL infusions of 1000 U/mL hyaluronidase into the striatum following the same surgical procedure outlined above. Following degradation times of 30 min, 6, 12, and 24 hr brains were harvested and post-fixed in 4% paraformaldehyde in PBS at 4° C. for 4 days. The tissue was cryo-protected in 30% sucrose for 3 days, frozen at −70° C., and sectioned into 50 μm slices. Tissue slices were immersed in biotinylated HABP ([…], Calbiochem 385911) in PBS and left overnight on an orbital shaker. Slides were then immersed Alexa 555-Streptavidin conjugate (2 mg/mL, Invitrogen S21281) for two hours. Following several washing steps in PBS, stained slices were mounted with ProLong Gold Antifade media (Invitrogen P36930) and covered. Fluorescent images were captured using the same set-up described for nanoparticle imaging."}, "[1]": {"test_system": "striatum of the normal rat brain", "experiment": "In vivo nanoparticle infusions by CED with enzymatic or hyperosmolar treatment"}, "rat brain": {"test_system": "rat brain", "details": "hyperosmolar mannitol co-infusion; cited from earlier work"}, "[2]": {"details": "co-infused with 20% mannitol; cited from earlier work"}, "xenografted tumors": {"test_system": "xenografted tumors", "details": "following collagenase treatment of xenografted tumors; cited from earlier work"}, "[3]": {"details": "in 0.3% agarose; cited from earlier work"}}, "note": "“Also recorded” adds a separate entry of the source."}
{"compound": "Hyaluronidase", "values": [{"measurement": "degradation of HA by HABP staining", "setting": "hyaluronan (HA); 30 min and 6 hr after 1 μL of 1000 U/mL", "value": "some evidence of degradation"}, {"measurement": "degradation of HA by HABP staining", "setting": "hyaluronan (HA); 12 hr and 24 hr after 1 μL of 1000 U/mL", "value": "widespread degradation of HA"}, {"measurement": "degradation of HA by HABP staining", "setting": "hyaluronan (HA); 24 hr incubation", "value": "most complete digestion of HA"}, {"measurement": "effect on nanoparticle distribution volume", "setting": "[1]; 30 min digestion with hyaluronidase", "value": "no measurable change; also recorded: no measurable effect"}, {"measurement": "increase in nanoparticle distribution volume", "setting": "[1]; 24 hr digestion with hyaluronidase vs normal tissue", "value": 70, "unit": "%"}]}
{"compound": "OC[C@@H](O)[C@@H](O)[C@H](O)[C@H](O)CO", "note": "[Mannitol, mannitol]", "values": [{"measurement": "increase in the distribution volume of 40 nm liposomes", "setting": "rat brain", "value": 50, "unit": "%"}, {"measurement": "distribution volume of 2 kDa dextran", "setting": "[2]", "value": "unchanged"}, {"measurement": "entrainment of nanoparticles in perivascular spaces / branched distribution indicative of perivascular transport", "setting": "[1]; co-infusion of mannitol with nanoparticles", "value": "attenuated; also recorded: not observed"}, {"measurement": "increase in nanoparticle distribution volume", "setting": "[1]; co-infusion with 25% mannitol, untreated tissue vs untreated tissue without mannitol", "value": 133, "unit": "%"}, {"measurement": "increase in nanoparticle distribution volume", "setting": "[1]; mannitol co-infusion into enzyme-treated (24 hr hyaluronidase) tissue vs enzyme-treated tissue", "value": 23, "unit": "%"}]}
{"compound": "collagenase", "values": [{"measurement": "increase in the diffusivity of IgG", "setting": "xenografted tumors", "value": 100, "unit": "%"}]}
{"compound": "albumin", "values": [{"measurement": "diffusivity D", "setting": "[3]", "value": "8.3×10^−7 cm^2/s"}]}
